Measured values taken from US12171255B2, “Shisha, heat-not-burn, or combustion casing, product, and method of making the same” (Tobacco Technology, Inc., priority 2020, dated 2024).

Test system: microbial growth
Test: Inhibition of microbial growth (preservative effect)

Structure (SMILES) | effectiveness at inhibiting microbial growth compared with propylene glycol | amount that can inhibit microbial growth and act as a preservative (in casing)
O=C(O)CC(O)(CC(=O)O)C(=O)O [citric acid] | more effective at inhibiting microbial growth than propylene glycol | –
CC(O)CO (centres unmarked) [propylene glycol] | – | above 15 % by weight
